Data reported in paper PMC4280362 (Biochimie, 2014).

T1: Isovaleryl-CoA dehydrogenase (IVD) (Homo sapiens, UniProt P26440)
T1 sequence (P26440 33-426): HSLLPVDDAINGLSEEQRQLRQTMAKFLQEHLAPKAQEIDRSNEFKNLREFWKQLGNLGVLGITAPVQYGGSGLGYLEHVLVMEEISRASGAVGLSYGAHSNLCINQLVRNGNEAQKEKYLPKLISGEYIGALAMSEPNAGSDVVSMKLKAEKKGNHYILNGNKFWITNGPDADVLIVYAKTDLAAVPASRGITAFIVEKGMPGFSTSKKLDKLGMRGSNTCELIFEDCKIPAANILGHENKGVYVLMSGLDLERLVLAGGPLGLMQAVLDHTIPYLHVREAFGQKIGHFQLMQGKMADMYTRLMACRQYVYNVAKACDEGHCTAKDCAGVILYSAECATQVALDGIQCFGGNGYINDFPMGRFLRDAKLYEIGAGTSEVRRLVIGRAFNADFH

T2: recombinant human isovaleryl-CoA dehydrogenase, CoA-persulfide-free (human, UniProt P26440 33-426)
T2 sequence: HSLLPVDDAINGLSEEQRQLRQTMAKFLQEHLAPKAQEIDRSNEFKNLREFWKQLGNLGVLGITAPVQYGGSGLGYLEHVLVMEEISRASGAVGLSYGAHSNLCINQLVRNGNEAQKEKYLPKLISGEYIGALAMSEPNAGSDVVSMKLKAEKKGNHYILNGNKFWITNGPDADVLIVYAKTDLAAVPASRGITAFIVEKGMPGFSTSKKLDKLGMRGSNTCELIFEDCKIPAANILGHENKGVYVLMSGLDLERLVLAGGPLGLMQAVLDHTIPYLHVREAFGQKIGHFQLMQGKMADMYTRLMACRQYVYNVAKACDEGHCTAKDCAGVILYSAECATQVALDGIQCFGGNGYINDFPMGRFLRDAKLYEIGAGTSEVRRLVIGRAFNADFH


Assays:
[1] = target: T1, Isovaleryl-CoA dehydrogenase (IVD); assay: anaerobic UV/visible spectral titration; format: binding
[2] = target: T2, recombinant human isovaleryl-CoA …; assay: competitive inhibition of enzyme activity

Kd [1] [µM]	Ki [2] [µM]	Molecule
0.54		CC(C)CC(=O)SCCNC(=O)CCNC(=O)[C@H](O)C(C)(C)COP(=O)(O)OP(=O)(O)OC[C@H]1O[C@@H](n2cnc3c(N)ncnc32)[C@H](O)[C@@H]1OP(=O)(O)O [isovaleryl-CoA]
	1500	RYATLPNIMKAK [ETF docking peptide, ETF βArg191-βLys202]
